Assay: gradient 5% acetonitrile 3 min, to 50% in 2 min, to 85% in 15 min, held 3 min, 100 µL/min
Settings: column: Zorbax Extend-C18 2.1 x 50 mm; eluents: water / acetonitrile, 0.1% formic acid
Summary of the method: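 Retention time was recorded from adduct peaks, which were picked computationally and each inspected manually. Pure standards ran in mixtures of ~100 molecules on HPLC coupled to a quadrupole time-of-flight mass spectrometer, in positive and negative ionization mode, through a Zorbax Extend-C18 column (2.1 × 50 mm, 1.8 μm) at 100 μL/min. Eluents were water and acetonitrile, each with 0.1% formic acid.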

RP-LC retention time | SMILES
978 s | CC1(C)C(=O)N(CC(=O)Nc2cccc(Cl)c2)c2ccccc21
608 s | O=C(c1ccccc1)N1CCN(c2nnc3ccccn23)CC1
674 s | CCCn1cc(CNC(=O)CN2CCN(Cc3ccc(F)cc3)C2=O)c(C)n1
661 s | O=C(C1CCN(c2cc(N3CCCCC3)ncn2)CC1)N1CCCCCC1
586 s | O=C(Cn1cnc2ccccc21)N1CCN(Cc2nc(-c3ccc(F)cc3)cs2)CC1
593 s | CCc1ccc(N2C(=O)CC(N3CCC(C(N)=O)CC3)C2=O)cc1 (stereo not drawn)
1040 s | CC(C)CNC(=O)c1cc2c(s1)N(CC1CC1)CCCC2
750 s | CCOCC(=O)NCc1ccc2c(c1)CCCN2C(=O)C1CCC1
825 s | COCCn1cc2c3c(cccc31)CN(C(=O)Nc1cc(OC)c(OC)c(OC)c1)CC2
908 s | CC1CCCN(c2ccc(-c3noc(CN4CCN(c5ccccn5)CC4)n3)cn2)C1 (stereo not drawn)
661 s | CCC(C)NC(=O)c1cc(=O)[nH]c2c(C)cccc12 (stereo not drawn)
668 s | Cc1ccc(NC(=O)N2CCCC2C(=O)NC2CC2)cc1 (stereo not drawn)
1260 s | CCCS(=O)(=O)N1CC2(CCCCC2)CC1COCc1ccccc1 (stereo not drawn)
729 s | COc1ccc(-c2nc3cc(C)ccn3c2NC(=O)COc2ccc(Cl)cc2)cc1
817 s | CCc1cc(=O)oc2cc(C)cc(OC(C)C(=O)N3CCC4(O)CCCCC4C3)c12 (stereo not drawn)
856 s | COc1ccc(Cl)cc1NC(=O)CSc1nc2nc(C)cc(C)n2n1
732 s | Cc1cc(NC(=O)C2CCN(S(=O)(=O)c3ccc(F)cc3)CC2)n(C)n1
581 s | Cc1cc(=O)n(CC(=O)Nc2ccccc2F)c(N)n1
606 s | NC(=O)C1CCN(C(=O)c2cncc(NS(=O)(=O)c3ccc(F)cc3)c2)CC1

RP-LC retention time | SMILES
907 s | CCOC(=O)c1c2c3c(cccc3n(C)c1=O)C(=O)c1ccccc1-2
577 s | Cc1cc(C)nc(-n2nc(C)cc2N)n1
849 s | Cc1cccc(NC(=O)Cn2nc(N(C)C)c3ccccc3c2=O)c1C
647 s | COc1ccc(CCC(=O)NC2CCN(c3nnc4cccc(C)n34)CC2)cc1
604 s | CC(C)Cn1c(=O)c(C(=O)NCCc2ccccn2)nc2cccnc21
888 s | COc1ccc2[nH]c3c(c2c1)CCN1C(=O)N(CCc2ccc(OC)c(OC)c2)C(=O)C31C (stereo not drawn)
938 s | CCOc1ccc(Cc2nnc(SCC(=O)c3ccc(OC)cc3)o2)cc1
788 s | Cc1ccc(C)c(NC(=O)Cc2csc(C)n2)c1
932 s | CCOC(=O)c1nc(Nc2ccc(CC)cc2)c2ccccc2n1
1190 s | COc1ccc2c(c1)CCc1sc(NC(=O)c3ccc(Br)cc3)nc1-2
903 s | Cc1cc(C)cc(NC(=O)C2CCN(S(=O)(=O)c3ccc4c(c3)NC(=O)C(C)O4)CC2)c1 (stereo not drawn)
582 s | COc1ccc(CC(=O)Nc2cc(N3CCOCC3)ncn2)cc1OC
915 s | COc1ccc(C(=O)N2CCC(COCc3ccccc3)CC2)cc1
1020 s | Cc1ccccc1Cn1nc2ccc(S(=O)(=O)N3CCCCCC3)cn2c1=O
1010 s | CCOC(=O)c1nc(N(C)c2ccccc2CC)c2ccccc2n1
644 s | CCCN1CN=C(Nc2nc(C)c3cccc(OC)c3n2)NC1
560 s | O=C(NCCCN1CCCCC1)C1CCCN(c2cnc3nccnc3c2)C1 (stereo not drawn)
1080 s | Cc1ccc(Cl)cc1NC(=O)Cn1nc2c(Oc3ccc(C(C)C)cc3)nccn2c1=O
923 s | O=C(c1cc(-c2ccco2)on1)N1CCCC(c2nnc(-c3ccccc3F)s2)C1 (stereo not drawn)

— the METLIN SMRT retention time set (Domingo-Almenara et al. 2019)
